Measurements taken from patent US20260193226A1, “MICROBIOCIDAL TETRAHYDROISOQUINOLINE DERIVATIVES” (SYNGENTA CROP PROTECTION AG, priority 2022, published 2026).

Experiments:
[1] = tested on: Monographella nivalis (Microdochium nivale); experiment: Monographella nivalis (Microdochium nivale) / liquid culture (foot rot cereals); format: cell-based; settings: compared to untreated control
Description: (§1) Example B8: Monographella nivalis (Microdochium nivale)/Liquid Culture (Foot Rot Cereals) Conidia of the fungus from cryogenic storage are directly mixed into nutrient broth (PDB potato dextrose broth). After placing a (DMSO) solution of test compound into a microtiter plate (96-well format), the nutrient broth containing the fungal spores is added. The test plates are incubated at 24° C. and the inhibition of growth is determined photometrically 4 to 5 days after application.

Alternaria solani = Alternaria solani / tomato / leaf disc (early blight); format: in vivo; settings: foliar, compared to untreated control
Description: Example B1: Alternaria solani/Tomato/Leaf Disc (Early Blight) Tomato leaf disks cv. Baby are placed on agar in multiwell plates (24-well format) and sprayed with the formulated test compound diluted in water. The leaf disks are inoculated with a spore suspension of the fungus 2 days after application. The inoculated leaf disks are incubated at 23° C./21° C.

[2] = tested on: Gibberella zeae (Fusarium graminearum); format: in vivo; settings: 200 ppm; wheat spikelet preventative; compared to untreated control
[3] = tested on: Mycosphaerella graminicola (Septoria tritici); experiment: Mycosphaerella graminicola (Septoria tritici) / liquid culture (Septoria blotch); format: cell-based; settings: Zymoseptoria tritici, compared to untreated control
Description: as §1, with “B15: Mycosphaerella graminicola (Septoria tritici)/Liquid” for “B8: Monographella nivalis (Microdochium nivale)/Liquid”, “(Septoria Blotch)” for “(Foot Rot Cereals)”

[4] = tested on: Glomerella lagenarium (Colletotrichum lagenarium); experiment: Glomerella lagenarium (Colletotrichum lagenarium) / liquid culture (anthracnose); format: cell-based; settings: Colletotrichum orbiculare, compared to untreated control
Description: as §1, with “B3: Glomerella lagenarium (Colletotrichum lagenarium)/Liquid” for “B8: Monographella nivalis (Microdochium nivale)/Liquid”, “(Anthracnose)” for “(Foot Rot Cereals)”, “measured” for “determined”, “photometrically 3 to” for “photometrically”, “4” for “4 to 5”

Pyrenophora teres = Pyrenophora teres / barley / leaf disc preventative (net blotch); format: in vivo; settings: foliar, compared to untreated control
Description: Example B12: Pyrenophora teres/Barley/Leaf Disc Preventative (Net Blotch) Barley leaf segments cv. Hasso are placed on agar in a multiwell plate (24-well format) and sprayed with the formulated test compound diluted in water. The leaf segments are inoculated with a spore suspension of the fungus 2 days after application. The inoculated leaf segments are incubated at 20° C. and 65% rh under a light regime of 12 h light/12 h darkness in a climate cabinet and the activity of a compound is assessed as disease control compared to untreated when an appropriate level of disease damage appears in untreated check leaf segments (5 to 7 days after application).

[5] = tested on: Mycosphaerella arachidis (Cercospora arachidicola); experiment: Mycosphaerella arachidis (Cercospora arachidicola) / liquid culture (early leaf spot); format: cell-based; settings: compared to untreated control
Description: as §1, with “B9: Mycosphaerella arachidis (Cercospora arachidicola)/Liquid” for “B8: Monographella nivalis (Microdochium nivale)/Liquid”, “(Early Leaf Spot)” for “(Foot Rot Cereals)”

Pythium ultimum = Pythium ultimum / liquid culture (seedling damping off); format: cell-based; settings: 20 ppm, compared to untreated control
Description: Example B13: Pythium ultimum/Liquid Culture (Seedling Damping Off) Mycelia fragments and oospores of a newly grown liquid culture of the fungus are directly mixed into nutrient broth (PDB potato dextrose broth). After placing a (DMSO) solution of test compound into a microtiter plate (96-well format), the nutrient broth containing the fungal mycelia/spore mixture is added. The test plates are incubated at 24° C. and the inhibition of growth is determined photometrically 2 to 3 days after application.

Cc1c([C@H]2CN(C(=O)CCCCCC(F)F)[C@@H](C)c3ccccc32)cnn1C [Compound P-46, 1-[(1S,4S)-4-(1,5-dimethylpyrazol-4-yl)-1-methyl-3,4-dihydro-1H-isoquinolin-2-yl]-7,7-difluoro-heptan-1-one]
inhibition of growth at 20 ppm [1]: ≥ 80% | pest or weed control at 200 ppm (Alternaria solani): ≥ 80% | control of Gibberella zeae [2]: at least 80% | inhibition of growth at 20 ppm [3]: ≥ 80% | inhibition of growth at 20 ppm [4]: ≥ 80% | pest or weed control at 200 ppm (Pyrenophora teres): ≥ 80% | inhibition of growth at 20 ppm [5]: ≥ 80%

Cc1c(C2CN(C(=O)CCc3ccc(F)cc3F)Cc3ccccc32)cnn1C (stereo not drawn) [Compound P-6, 3-(2,4-difluorophenyl)-1-[4-(1,5-dimethylpyrazol-4-yl)-3,4-dihydro-1H-isoquinolin-2-yl]propan-1-one]
pest or weed control at 200 ppm (Alternaria solani): ≥ 80% | inhibition of growth at 20 ppm [3]: ≥ 80% | pest or weed control at 200 ppm (Pyrenophora teres): ≥ 80% | control of Pythium ultimum (Pythium ultimum): at least 80% | inhibition of growth at 20 ppm [5]: ≥ 80%
